Test results published in US20110135634A1, “METHODS OF INHIBITING INFECTION BY DIVERSE SUBTYPES OF DRUG-RESISTANT HIV-1” (priority 2007, published 2011).
Where two headings read alike, the source gives them in different places.

Tests used:
[1] = system: reporter viruses pseudotyped with HIV-1JR-FL envelope (U87-CD4-CCR5 cells); test: microbe, parasite or virus in culture; type: cell-based; conditions: for IC90: HIV-1 envelope JRFL, 1st inhibitor alone
[2] = system: reporter viruses pseudotyped with HIV-1SF162 envelope (U87-CD4-CCR5 cells); test: HIV-1 pseudovirus assay, SF162 envelope; type: cell-based
Excerpt: A self-inactivating (SIN) vector was derived from the pNL4-3ΔEnv-luciferase vector (Dragic et al. 1996) by deleting 507 basepairs in the U3 region of the 3′ long terminal repeat (LTR) so as to remove the TATA box and transcription factor binding sites. The human cytomegalovirus promoter was inserted upstream of the luciferase (luc) gene to enable expression of luciferase following integration.
Reporter viruses pseudotyped with HIV-1JR-FL or HIV-1SF162 envelopes were generated by cotransfection of 293T cells with the SIN vector and the appropriate pcDNA env-expressing vector as previously described (Dragic et al. 1996). […] Cultures were incubated for 72 h at 37° C. in DMEM containing 10% fetal bovine serum, […] puromycin, 0.3 mg/mL geneticin, antibiotics, and 0.5% DMSO. Luciferase activity (relative light units or RLU) was measured using. BrightGlo reagent (Promega, Madison, Wis.) according to the manufacturer's instructions.
Experimental design and data analysis were based on the combination index (CI) method (Chou et al. 1991; Chou et al. 1984). […] The mutually exclusive CI formula was used for combinations of CCR5 inhibitors, while the mutually non-exclusive formula was utilized for combinations of inhibitors to distinct targets (Chou et al. 1991). Each test was conducted 4-12 times. Synergy, additivity and antagonism are indicated by CI<1, CI=1 and CI>1, respectively.

[3] = system: HIV-1 Env-mediated fusion (HeLa-EnvJRFL and CEM NKR-CCR5 cells); test: RET cell-cell fusion assay, combination testing (Part II, Example 1)
Protocol: Serial dilutions of small molecules were conducted in DMSO. Subsequent dilutions were conducted in medium to achieve a fmal DMSO concentration in the assay of 0.5%. Peptides and mAbs were diluted in PBS in the absence of DMSO.
Briefly, fluorescein octadecyl ester (F18; Molecular Probes, Eugene, Oreg.; 5 mg/ml in ethanol), was diluted 1:800 in DMEM labeling medium (DMEM; Invitrogen, Carlsbad, Calif.) with 10% fetal bovine serum (FBS; HyClone, Logan, Utah) and adjusted to an A506 of 0.34±10%. […] Both dyes were further diluted 2-fold by addition to cells in T75-cm^2 flasks. HeLa-EnvJRFL and CEM NKR-CCR5 cells were incubated overnight in F18- and R18-containing culture medium, respectively. The following day, medium from HeLa-EnvJRFL cells was removed and 10 ml of 0.5 mM EDTA was added and incubated at 37° C. for 5 min. EDTA was removed and the flask was returned to the incubator for another 5 min followed by striking of the flask to dislodge cells. […] Suspension CEM NKR-CCR5 cells were added directly to a separate 50-ml conical centrifuge tube. […] Ten μl of each cell type (15,000 cells) were seeded into wells of a 384-well plate. Inhibitor compounds were added immediately thereafter to bring the final well volume to 40 μl, and the plates were incubated for 4 h at 37° C. Compounds were tested individually and in combination at a fixed molar ratio or mass ratio over a range of serial dilutions.
The “% RET” was calculated according to the following formula after subtraction of background (blank) readings:
The “% Inhibition” was calculated according to the following formula: […]
IC50 values were generated for all combinations as described above. Combination Index (CI) and Dose Reduction (DR) values were calculated according to the following formulas:
Combinations with CI<1 are determined to be synergistic, whereas combinations with CI>1 are determined to be antagonistic. […]
In this assay, effector cells are labeled with the F18 dye and target cells with the R18 dye. […] Drug susceptibility is measured by adding serial concentrations of drugs to target cells prior to addition of effector cells.

[4] = target: T1, CCR5 on CEM.NKR-CCR5 cells (Homo sapiens, UniProt P51681); test: Competition binding: inhibition of PRO 140-PE binding; conditions: CEM.NKR-CCR5 cells, flow cytometry
T1 construct: host or cells: CEM.NKR-CCR5 (transduced human T cell leukemia line)
Protocol: Azide was added to block CCR5 internalization during the assay.

[5] = system: primary R5 HIV-1 isolates JR-FL and Case C 1/85 (CC1/85); test: In vitro resistance selection and susceptibility testing on PBMC; type: cell-based; conditions: p24 ELISA
Protocol: For susceptibility testing, viruses were cultured in vitro on stimulated PBMC. In the presence and absence of serially diluted drug, and the extent of viral replication was determined by p24 ELISA.

HIV-1 = conditions: dose-dependent, treatment period of 10-14 days; cited from earlier work
[6] = Human immunodeficiency virus 1, U87/CD4/CCR5

T1 sequence (P51681 whole entry): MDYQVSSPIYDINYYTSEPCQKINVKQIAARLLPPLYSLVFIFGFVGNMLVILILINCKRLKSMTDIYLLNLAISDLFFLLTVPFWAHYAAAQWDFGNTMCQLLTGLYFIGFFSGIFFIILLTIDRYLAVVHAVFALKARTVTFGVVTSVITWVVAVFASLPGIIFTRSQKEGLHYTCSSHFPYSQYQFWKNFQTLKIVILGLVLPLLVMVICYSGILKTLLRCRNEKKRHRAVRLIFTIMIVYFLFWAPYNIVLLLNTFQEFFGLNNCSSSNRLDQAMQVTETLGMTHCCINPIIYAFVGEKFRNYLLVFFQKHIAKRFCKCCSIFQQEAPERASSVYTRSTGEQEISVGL

SMILES	IC90 [1] [nM]	IC50 [1, 6] [nM]	IC50 [2, 6] [nM]	IC90 [2, 6] [nM]	Mean Dose Reduction (2D7) ([3]; 2D7 in combination with the labelled inhibitor, 1:1 molar ratio)	Mean CI ([3]; PRO 140 in combination with the labelled inhibitor, 1:1 molar ratio, Combination Index at IC50)	Mean Dose Reduction (Cpd in combination) ([3]; labelled inhibitor in combination with 2D7, 1:1 molar ratio)	IC90 ([1]; read-out: IC90) [nM]	IC50 ([2]; HIV-1 envelope SF162, 1st inhibitor alone, read-out: IC50) [nM]	IC90 ([2]; HIV-1 envelope SF162, 1st inhibitor alone, read-out: IC90) [nM]	inhibition of PRO 140-PE binding (in words) [4]	inhibition of PRO 140 escape mutants [5]	mean reductions in HIV-1 RNA levels (HIV-1) [log10]
Cc1nnc(C(C)C)n1C1CC2CCC(C1)N2CC[C@H](NC(=O)C1CCC(F)(F)CC1)c1ccccc1 (stereo partly shown) [UK-427,857, reference compound]	46	7.4	0.87	13	2.45 ± 0.12	0.59 ± 0.04	5.73 ± 0.54	–	–	–	–	–	–
COC[C@@H](c1ccc(C(F)(F)F)cc1)N1CCN(C2(C)CCN(C(=O)c3c(C)ncnc3C)CC2)C[C@@H]1C [SCH-D, 1-[(4,6-dimethyl-5-pyrimidinyl)carbonyl]-4-[4-[2-methoxy-1(R)-4-(trifluoromethyl)phenyl]ethyl-3(S)-methyl-1-piperazinyl]-4-methylpiperidine]	–	–	–	–	–	–	–	44	0.34	14	modest levels of inhibition	efficiently inhibited	~1
